In assay [1] the test system is angiotensin I-induced hypertensive rats. Description: oral antihypertensive activity in angiotensin I-induced hypertensive rats. The following applies: Rattus norvegicus, dose for 50% reduction in angiotensin I-induced hypertension, read-out: I50 (ID50, antihypertensive activity). The class given is in vivo.
In assay [2] the target is T1, angiotensin converting enzyme (Oryctolagus cuniculus, UniProt P12822).
T1 sequence (P12822 34-1310): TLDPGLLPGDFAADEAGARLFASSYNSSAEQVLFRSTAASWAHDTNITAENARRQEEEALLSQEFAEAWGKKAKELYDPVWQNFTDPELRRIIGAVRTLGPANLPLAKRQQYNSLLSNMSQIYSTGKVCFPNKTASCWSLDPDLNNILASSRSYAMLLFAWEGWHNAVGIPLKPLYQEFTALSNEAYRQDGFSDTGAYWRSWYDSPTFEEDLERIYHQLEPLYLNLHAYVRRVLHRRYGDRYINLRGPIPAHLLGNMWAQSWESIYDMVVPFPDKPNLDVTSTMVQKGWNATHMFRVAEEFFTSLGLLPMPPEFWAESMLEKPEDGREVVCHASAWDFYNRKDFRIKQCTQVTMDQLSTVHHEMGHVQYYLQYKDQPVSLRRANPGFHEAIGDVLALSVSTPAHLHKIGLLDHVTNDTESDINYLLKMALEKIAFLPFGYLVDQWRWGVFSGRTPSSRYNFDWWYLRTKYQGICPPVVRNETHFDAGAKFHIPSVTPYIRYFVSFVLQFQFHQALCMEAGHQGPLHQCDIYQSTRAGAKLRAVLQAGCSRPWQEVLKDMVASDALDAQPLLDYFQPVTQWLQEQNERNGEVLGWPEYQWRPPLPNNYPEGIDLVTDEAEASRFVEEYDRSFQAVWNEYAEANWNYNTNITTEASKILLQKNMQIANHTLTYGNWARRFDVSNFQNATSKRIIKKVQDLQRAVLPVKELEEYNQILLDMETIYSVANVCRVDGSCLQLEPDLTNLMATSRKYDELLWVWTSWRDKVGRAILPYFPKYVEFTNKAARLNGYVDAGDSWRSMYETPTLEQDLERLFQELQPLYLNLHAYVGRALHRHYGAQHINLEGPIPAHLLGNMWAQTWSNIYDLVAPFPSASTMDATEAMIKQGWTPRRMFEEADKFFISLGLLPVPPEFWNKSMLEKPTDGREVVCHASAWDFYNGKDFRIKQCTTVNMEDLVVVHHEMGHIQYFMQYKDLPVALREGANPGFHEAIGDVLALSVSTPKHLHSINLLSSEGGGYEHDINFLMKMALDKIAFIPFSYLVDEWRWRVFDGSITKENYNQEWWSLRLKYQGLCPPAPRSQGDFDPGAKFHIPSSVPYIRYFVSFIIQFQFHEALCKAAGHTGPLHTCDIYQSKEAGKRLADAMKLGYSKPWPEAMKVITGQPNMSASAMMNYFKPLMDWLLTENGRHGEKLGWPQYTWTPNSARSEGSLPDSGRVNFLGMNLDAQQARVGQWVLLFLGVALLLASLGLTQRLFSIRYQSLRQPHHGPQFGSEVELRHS
Put plainly: angiotensin converting enzyme inhibition (ACEI activity), method of Science 196, 441-4 (1977). The class given is biochemical. The following applies: amount required for 50% inhibitive effect, read-out: I50 (ACEI activity). The source says:
The I50 value represents the amount in micromols required to give an inhibitive effect of 50% in the tests using the procedure described in the Science article.

`CC(CS)C(=O)N(CC(=O)O)C1Cc2ccccc2C1` (centres unmarked) [2-Indanyl H, N-(3-Mercapto-2-methylpropanoyl)-N-(indan-2-yl)glycine]: in assay [1], the ED50 was determined as 0.16 mg/kg.
With `CC(=O)SCC(C)C(=O)N(CC(=O)O)C1CCCCCC1` (centres unmarked) [Cycloheptyl CH3 CO, N-(3-Acetylthio-2-methylpropanoyl)-N-cycloheptylglycine], in assay [2], the IC50 turned out to be 0.088 µM.
Turning to `CC(CS)C(=O)N(CC(=O)O)C1CCCCCC1` (centres unmarked) [Cycloheptyl H, N-(3-Mercapto-2-methylpropanoyl)-N-cycloheptylglycine], the ED50 in assay [1] was found to be 0.021 mg/kg.
On to `CC(=O)SCC(C)C(=O)N(CC(=O)O)C1CCCC1` (centres unmarked) [Cyclopentyl CH3 CO, N-(3-Acetylthio-2-methylpropanoyl)-N-cyclopentylglycine], for which, in assay [2], the IC50 was 0.044 µM. Also, the ED50 in assay [1] was 0.16 mg/kg.
As for `CC(CS)C(=O)N(CC(=O)O)C1CCCC1` (centres unmarked) [Cyclopentyl H, N-(3-Mercapto-2-methylpropanoyl)-N-cyclopentylglycine], the ED50 in assay [1] was determined as 0.15 mg/kg.
The same measure, in the same setting: the value for `CC(=O)SCC(C)C(=O)N(CC(=O)O)C1CC1` (centres unmarked) [Cyclopropyl CH3 CO, N-(3-Acetylthio-2-methylpropanoyl)-N-(cyclopropyl)glycine] was 0.13 mg/kg.
Regarding `CC(CS)C(=O)N(CC(=O)O)C1CC1` (centres unmarked) [Cyclopropyl H, N-(3-Mercapto-2-methylpropanoyl)-N-cyclopropylglycine], the IC50 in assay [2] was found to be 0.027 µM. Besides, the ED50 in assay [1] was determined as 0.14 mg/kg.
For the compound `CC(CS)C(=O)N(CC(=O)O)C1CCC1` (centres unmarked) [Cylcobutyl H, N-(3-Mercapto-2-methylpropanoyl)-N-cyclobutylglycine], the ED50 in assay [1] is 0.21 mg/kg.
As for `COCCN(CC(=O)O)C(=O)C(C)CS` (centres unmarked) [H3 CO(CH2)2 H], the IC50 in assay [2] was determined as 0.095 µM.
As to `CSCCCN(CC(=O)O)C(=O)C(C)CS` (centres unmarked) [H3 CS(CH2)3 H, N-(3-Mercapto-2-methylpropanoyl)-N-(3-methylthiopropyl)glycine], the IC50 in assay [2] came to 0.055 µM.
For `CC(=O)SCC(C)C(=O)N(CC(=O)O)c1ccccc1` (centres unmarked) [Phenyl CH3 CO, N-(3-Acetylthio-2-methylpropanoyl)-N-phenylglycine], the ED50 in assay [1] was determined as 0.23 mg/kg.
Take `CC(=O)SCC(C)C(=O)N(CC(=O)O)[C@@H]1C[C@H]2CC[C@@H]1C2` (stereo partly drawn) [exo-Norbornyl CH3 CO, N-(3-Acetylthio-2-methylpropanoyl)-N-(exo-norbornyl)glycine]: the IC50 in assay [2] turned out to be 0.022 µM. The ED50 in assay [1] was 0.06 mg/kg.
In the same order, the values of `CC(CS)C(=O)N(CC(=O)O)[C@@H]1C[C@H]2CC[C@@H]1C2` (stereo partly drawn) [exo-Norbornyl H, N-(3-Mercapto-2-methylpropanoyl)-N-(exo-norbornyl)glycine] are 0.025 µM and 0.11 mg/kg.
